{"source": "patent US20110039784A1", "about": "“COMPOSITION FOR TREATMENT OF ERECTILE DYSFUNCTION” (SUNGKYUNKWAN UNIVERSITY Foundation for Corporate …, priority 2009, published 2011)", "key": {"[1]": {"tested_on": "corporal smooth muscle cells", "assay": "Fura-2 intracellular calcium level in cultured corporal smooth muscle cells, ET-1 induced", "type": "cell-based, human", "conditions": "control corporal smooth muscle cells, n=3", "experimental": "After fura-2 was loaded thereto, cultured corporal smooth muscle cells were measured for intracellular calcium levels. The extracellular addition of 50 nM endothelin-1 induced an increase in intracellular calcium level, with the separation of an initial increasing phase and a late constant phase (FIG. 7A).\nBetween the TRPC6 cDNA-transfected cells and the control cells, there are little differences in the initial phase. […] Intracellular calcium levels were also measured in the corporal smooth muscle cells where the dominant negative form of TRPC6 was expressed. […] Collectively, F340/380, accounting for ET-1-induced calcium increase, was measured to be 1.47±0.03 (n=3) in corporal smooth muscle cells (control), 1.53±0.09 (n=3) in corporal smooth muscle cells where TRPC6 was overexpressed, and 0±0 (n=3) in corporal smooth muscle cells where the dominant negative form of TRPC6 was expressed (FIG. 7D)."}, "TRPC6 ion channel [2]": {"biological_target": "T1, TRPC6 ion channel (Mus musculus, UniProt Q61143)", "T1 construct": "expressed in transfected cells; host or cells: HEK 293", "T1 sequence (Q61143 1-930)": "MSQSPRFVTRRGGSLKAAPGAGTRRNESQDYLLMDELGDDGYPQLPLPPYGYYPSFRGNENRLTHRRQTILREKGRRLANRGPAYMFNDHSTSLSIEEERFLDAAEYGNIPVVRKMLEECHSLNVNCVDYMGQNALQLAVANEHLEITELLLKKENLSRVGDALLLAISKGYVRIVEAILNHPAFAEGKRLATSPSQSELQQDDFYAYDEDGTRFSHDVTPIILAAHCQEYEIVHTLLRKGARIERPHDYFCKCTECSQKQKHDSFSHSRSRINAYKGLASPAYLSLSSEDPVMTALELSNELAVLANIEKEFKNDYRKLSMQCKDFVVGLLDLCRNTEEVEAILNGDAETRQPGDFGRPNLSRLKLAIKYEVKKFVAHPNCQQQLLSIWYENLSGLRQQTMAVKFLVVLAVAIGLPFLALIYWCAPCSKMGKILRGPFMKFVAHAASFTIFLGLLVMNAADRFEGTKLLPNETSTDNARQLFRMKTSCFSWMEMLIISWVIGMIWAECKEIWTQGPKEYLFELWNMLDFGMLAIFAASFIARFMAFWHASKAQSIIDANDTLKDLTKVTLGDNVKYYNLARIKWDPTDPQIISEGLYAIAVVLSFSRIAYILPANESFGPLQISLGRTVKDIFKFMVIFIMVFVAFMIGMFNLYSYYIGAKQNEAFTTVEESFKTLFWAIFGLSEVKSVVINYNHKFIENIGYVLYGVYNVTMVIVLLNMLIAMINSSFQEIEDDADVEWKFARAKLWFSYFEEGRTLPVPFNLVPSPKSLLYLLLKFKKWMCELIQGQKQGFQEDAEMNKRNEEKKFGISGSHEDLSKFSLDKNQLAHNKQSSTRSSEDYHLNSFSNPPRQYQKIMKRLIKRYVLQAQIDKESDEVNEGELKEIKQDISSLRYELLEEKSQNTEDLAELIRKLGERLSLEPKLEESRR", "assay": "Whole-cell patch clamp in HEK 293 cells transfected with wild-type TRPC6", "type": "cell-based", "conditions": "for whole-cell current at −100 mV: TRPC6-transfected HEK cells, n=5; for change of whole-cell current on application: membrane potential held at −60 mV, symmetrical 140 mM Cs, 200 μM PE or 100 μM CCh", "experimental": "The physiological function of the TRPC6 ion channel was examined in HEK cells which are free of ion channels. In this regard, GFP-TRPC6 pcDNA was transfected into HEK cells using a liposome and expressed therein. After the membrane potential was held at −60 mV, whole-cell currents were recorded in symmetrical 140 mM Cs conditions. […] At −100 mV, the current was −112.0±18.1 pA (n=5) in a 140 mM extracellular Cs condition, −90.0±15.0 pA (n=5) after adding 200 μM PE, and −460±169.5 pA (n=5) after adding 100 μM CCh. […] The PE/CCh-induced current was obtained after leak subtraction was performed (FIG. 3C)."}, "TRPC6 ion channel [3]": {"biological_target": "T2, TRPC6 ion channel (Mus musculus, UniProt Q61143)", "T2 construct": "expressed in transfected cells; host or cells: human corporal smooth muscle cells", "T2 sequence (Q61143 1-930 A105V/R114W/A184S/Y371D/R436P/G437R/T905S)": "T1 sequence (Q61143 1-930) with A105V, R114W, A184S, Y371D, R436P, G437R, T905S", "assay": "Whole-cell patch clamp in human corporal smooth muscle cells transfected with wild-type or dominant negative TRPC6", "type": "cell-based", "conditions": "after ET-1, 1 mM La^3+", "experimental": "As described with HEK cells, the wild-type TRPC6 cDNA was expressed. After being selected, green-fluorescent cells were examined for the activity of the ion channel using a whole-cell patch clamp technique. At the −60 mV holding membrane potential with the external solution changed from Na-rich normal tyrode solution to 140 mM Cs, the inward current was increased; whereas no currents changed upon external treatment with ET-1, a typical inducer of smooth muscle contraction. At −100 mV, the current was −535.9±162.4 pA (n=5) in 140 mM extracellular Cs, and −462.1±150.5 pA (n=5) after adding 100 nM ET-1. The current-voltage (I-V) relationship of corporal smooth muscle cells was similar to that of HEK cells activated by CCh. […] (FIG. 4)\nFor genetic regulation of the TRPC6 ion channel in corporal smooth muscle cells, the cells transfected with the dominant negative form of the TRPC6 ion channel were examined for electrophysiological function."}, "maxi-K ion channel [4]": {"tested_on": "maxi-K ion channel", "assay": "Whole-cell patch clamp in human corporal smooth muscle cells expressing rslo gene", "type": "cell-based, rat", "conditions": "rslo-expressed human corporal smooth muscle cells", "excerpt": "As described with HEK cells, the rslo pcDNA was expressed. The ion channels were examined for activity using a whole-cell patch clamp technique. Under the condition of a pipette solution having a calcium concentration of pCa 6.5, the current was 60.1±7.2 pA/pF (n=22) at a membrane potential of +60 mV in the rslo-expressed cells, which increased in outward current four-fold compared to that of control (16.4±2 pA/pF n=9) (FIG. 9A). Under the condition of an intracellular calcium concentration of pCa 7, the current was 12.8±2 pA/pF (+60 mV, n=9) in the control and 38.1±7 pA/pF (+60 mV, n=13) in the rslo-expressed cells (FIG. 9B). […] The current-voltage (I-V) relationship was similar to that recorded in the HEK cells."}, "maxi-K ion channel [5]": {"biological_target": "T3, maxi-K ion channel (Rattus norvegicus, UniProt Q62976)", "T3 construct": "GFP; expressed in transfected cells; host or cells: HEK 293", "T3 sequence (Q62976 whole entry)": "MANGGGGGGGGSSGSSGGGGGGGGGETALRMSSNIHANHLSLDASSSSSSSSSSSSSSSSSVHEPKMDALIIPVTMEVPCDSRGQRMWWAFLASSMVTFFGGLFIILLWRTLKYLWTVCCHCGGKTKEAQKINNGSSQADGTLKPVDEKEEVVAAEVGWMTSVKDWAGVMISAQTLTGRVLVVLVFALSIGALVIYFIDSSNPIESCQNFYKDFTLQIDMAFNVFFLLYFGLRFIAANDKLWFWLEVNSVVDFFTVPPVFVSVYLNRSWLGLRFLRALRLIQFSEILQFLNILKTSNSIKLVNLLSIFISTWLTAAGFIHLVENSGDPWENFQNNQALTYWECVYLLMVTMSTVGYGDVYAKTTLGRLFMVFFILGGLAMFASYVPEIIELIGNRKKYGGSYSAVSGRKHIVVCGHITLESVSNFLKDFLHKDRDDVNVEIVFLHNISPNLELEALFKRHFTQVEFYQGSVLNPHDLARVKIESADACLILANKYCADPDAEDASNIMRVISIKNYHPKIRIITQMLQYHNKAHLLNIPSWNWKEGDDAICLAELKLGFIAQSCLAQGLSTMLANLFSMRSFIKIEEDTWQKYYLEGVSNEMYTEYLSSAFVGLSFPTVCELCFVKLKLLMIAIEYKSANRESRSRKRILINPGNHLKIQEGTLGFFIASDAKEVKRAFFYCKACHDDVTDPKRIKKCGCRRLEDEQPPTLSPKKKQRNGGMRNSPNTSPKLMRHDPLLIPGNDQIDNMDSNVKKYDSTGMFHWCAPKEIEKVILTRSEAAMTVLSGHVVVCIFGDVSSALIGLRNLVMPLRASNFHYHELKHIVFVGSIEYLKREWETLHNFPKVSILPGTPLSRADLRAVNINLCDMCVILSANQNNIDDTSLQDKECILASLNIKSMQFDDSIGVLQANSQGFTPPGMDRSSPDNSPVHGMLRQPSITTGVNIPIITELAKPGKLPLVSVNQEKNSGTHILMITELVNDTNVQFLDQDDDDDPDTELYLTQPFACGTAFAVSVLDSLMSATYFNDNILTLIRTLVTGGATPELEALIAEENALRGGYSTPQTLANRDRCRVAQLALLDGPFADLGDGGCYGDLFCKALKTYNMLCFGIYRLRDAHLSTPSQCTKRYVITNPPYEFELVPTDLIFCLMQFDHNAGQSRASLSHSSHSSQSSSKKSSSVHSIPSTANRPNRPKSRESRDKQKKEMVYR", "assay": "Whole-cell patch clamp in HEK 293 cells expressing rslo gene", "type": "cell-based", "conditions": "rslo-expressed HEK cells", "excerpt": "The maxi-K ion channel is known to play an important role in reducing the contraction of smooth muscle responsible for the modulation of penile erection and relaxation. Together with GFP, the α-subunit (rSlo) coding sequence of calcium-dependent potassium ion channel cloned from the rat brain was subcloned into pcDNA3.1(+). After the expression of rSlo gene in HEK cells, green-fluorescent cells were selected under a mercury lamp light and observed for the electrophysiological properties of the ion channels using a whole-cell patch clamp technique. Cells were used within 24˜48 hrs after expression. […] At an intracellular calcium level of pCa 7, the current was read 10.4±3.2 pA/pF (+60 mV, n=6) in the control and 100.5±15.4 pA/pF (n=6) in the rslo-expressed cells (FIG. 8B)."}}, "note": "Numbering of substitutions follows the chain as printed. Ends that are not written are not given here."}
{"compound": "endothelin-1 (CSCSSLMDKECVYFCHLDIIW; ends and bridges not checked; cysteine pairing not given here; UniProt P05305 53-73, looked up) [ET-1, a typical inducer of smooth muscle contraction]", "values": [{"measurement": "F340/380, accounting for ET-1-induced calcium increase", "setting": "[1]", "result": "1.47±0.03"}]}
{"compound": "CNC[C@H](O)c1cccc(O)c1", "note": "[PE, phenylephrine]", "values": [{"measurement": "whole-cell current at −100 mV", "setting": "TRPC6 ion channel [2]; after adding 200 μM PE", "result": "−90.0±15.0", "unit": "pA"}, {"measurement": "change of whole-cell current on application", "setting": "TRPC6 ion channel [2]", "result": "nearly no currents changed"}]}
{"compound": "[La+3]", "note": "[La^3+]", "values": [{"measurement": "effect on current", "setting": "TRPC6 ion channel [3]", "result": "completely decreased"}]}
{"compound": "CC[N+](CC)(CC)CC", "note": "[TEA]", "values": [{"measurement": "effect on outward current", "setting": "maxi-K ion channel [4]", "result": "decreased in a dose-dependent manner"}, {"measurement": "effect on outward current", "setting": "maxi-K ion channel [5]", "result": "decreased in a dose-dependent manner"}]}
{"compound": "C[N+](C)(C)CCOC(N)=O", "note": "[CCh, carbachol]", "values": [{"measurement": "whole-cell current at −100 mV", "setting": "TRPC6 ion channel [2]; after adding 100 μM CCh", "result": "−460±169.5", "unit": "pA"}, {"measurement": "change of whole-cell current on application", "setting": "TRPC6 ion channel [2]", "result": "increased inward currents"}]}
